This note sets out measurements from US20250197369A1, “NOVEL HETEROCYCLIC INHIBITOR FOR HISTONE DEACETYLASE, AND PHARMACEUTICAL COMPOSITION COMPRISING SAME” (SOOKMYUNG WOMEN'S UNIVERSITY INDUSTRY-ACADEMIC COOPERATION …, priority 2022, published 2025).

One data set deals with HDAC8 (Homo sapiens (Human), UniProt Q9BY41). Put plainly: HDAC8 inhibitory activity (fluorogenic HDAC substrate). It counts as biochemical. Conditions: culture 30° C. for 2 hours. Here is the method: (§1) 2×HDAC enzymes were dispensed in each well of the reaction plate except for the control well without HDAC enzyme, and buffer was dispensed in the control well without the enzyme. Using acoustic technology (Echo550, nanoliter range), compounds dissolved in 100% DMSO were added to the enzyme mixture, spun down, and pre-cultured at room temperature for 10 minutes. All reaction wells were placed with a 2× substrate mixture (fluorogenic HDAC substrate) to initiate the reaction and then spun down. Culture was performed at 30° C. for 1 hour for HDAC6 and 2 hours for HDAC8.
Sequence of HDAC8 (Q9BY41 whole entry, species assumed): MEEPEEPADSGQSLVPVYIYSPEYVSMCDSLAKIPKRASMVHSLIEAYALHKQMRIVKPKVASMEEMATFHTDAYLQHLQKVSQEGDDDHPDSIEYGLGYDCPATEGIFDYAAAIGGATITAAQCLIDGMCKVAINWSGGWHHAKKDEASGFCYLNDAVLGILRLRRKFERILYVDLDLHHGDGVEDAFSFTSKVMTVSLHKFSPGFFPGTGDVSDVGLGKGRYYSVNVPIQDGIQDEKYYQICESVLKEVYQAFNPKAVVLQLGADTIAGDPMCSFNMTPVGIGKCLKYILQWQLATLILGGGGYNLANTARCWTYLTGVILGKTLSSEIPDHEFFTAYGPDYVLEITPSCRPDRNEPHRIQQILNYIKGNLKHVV
(§2) Afterwards, a developer was added along with trichostatin A to halt the reaction and develop fluorescence. Dynamics measurements were performed with Envision (Ex/Em=360/460 nm) for 20 minutes with 5-minute intervals, and values from endpoint reading were taken for analysis after the phenomenon reached a plateau.

The next data set deals with HDAC6 (Homo sapiens (Human), UniProt Q9UBN7). As to the kind of experiment: HDAC6 inhibitory activity (fluorogenic HDAC substrate). The class given is biochemical. The settings on record: culture 30° C. for 1 hour. Here is the method:
as §1, §2

A short description of a further data set: MS (in mouse). The class given is in vitro ADME. Also noted: unit not given here.
Another data set can be described thus: MS (in human). Also noted: unit not given here. The class given is in vitro ADME.

Sequence of HDAC6 (Q9UBN7 whole entry): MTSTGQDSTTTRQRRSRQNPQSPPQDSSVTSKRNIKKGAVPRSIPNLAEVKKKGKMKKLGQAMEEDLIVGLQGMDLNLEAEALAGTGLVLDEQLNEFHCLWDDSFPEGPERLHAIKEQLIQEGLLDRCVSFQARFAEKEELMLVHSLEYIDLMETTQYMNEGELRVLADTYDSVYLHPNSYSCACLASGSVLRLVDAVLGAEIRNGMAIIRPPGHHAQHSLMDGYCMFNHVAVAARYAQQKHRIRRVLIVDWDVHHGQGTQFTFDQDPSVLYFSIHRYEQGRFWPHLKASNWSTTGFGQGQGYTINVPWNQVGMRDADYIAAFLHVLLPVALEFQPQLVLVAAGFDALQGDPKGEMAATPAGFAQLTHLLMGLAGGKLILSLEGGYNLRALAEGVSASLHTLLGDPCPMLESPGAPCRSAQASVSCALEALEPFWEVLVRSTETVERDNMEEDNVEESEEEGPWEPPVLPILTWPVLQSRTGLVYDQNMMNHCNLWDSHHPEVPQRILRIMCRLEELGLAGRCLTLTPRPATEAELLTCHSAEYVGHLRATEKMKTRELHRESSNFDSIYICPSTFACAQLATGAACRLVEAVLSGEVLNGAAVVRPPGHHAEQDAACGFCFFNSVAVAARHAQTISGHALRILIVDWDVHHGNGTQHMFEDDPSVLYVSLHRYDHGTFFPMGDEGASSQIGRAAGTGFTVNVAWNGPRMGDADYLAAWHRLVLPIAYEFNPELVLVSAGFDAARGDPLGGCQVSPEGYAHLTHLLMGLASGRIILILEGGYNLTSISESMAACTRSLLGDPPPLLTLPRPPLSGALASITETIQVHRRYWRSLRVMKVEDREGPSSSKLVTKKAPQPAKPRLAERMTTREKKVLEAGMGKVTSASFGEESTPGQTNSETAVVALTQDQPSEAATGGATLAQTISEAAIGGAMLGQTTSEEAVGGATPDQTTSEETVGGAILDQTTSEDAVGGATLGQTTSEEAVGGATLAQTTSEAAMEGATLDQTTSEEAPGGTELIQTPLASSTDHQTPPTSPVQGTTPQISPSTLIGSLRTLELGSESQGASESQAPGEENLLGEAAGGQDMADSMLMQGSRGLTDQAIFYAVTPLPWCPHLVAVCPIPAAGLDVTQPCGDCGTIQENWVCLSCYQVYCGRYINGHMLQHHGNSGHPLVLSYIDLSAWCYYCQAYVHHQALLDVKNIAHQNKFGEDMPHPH

Usually IC50 stands for the midpoint of a concentration-inhibition curve. In the case of `Cc1ccc(Cn2cc3ccc(C(=O)NO)cc3n2)cc1` [Compound 52, 2-(4-Methylbenzyl)-2H-indazole-6-carboxylic acid hydroxyamide], the IC50 against HDAC8 amounted to 699 nM; on HDAC6, 7.4 nM.
As to `O=C(NO)c1ccc2cn(Cc3ccc(Br)cc3)nc2c1` [Compound 55, 2-(4-Bromobenzyl)-2H-indazole-6-carboxylic acid hydroxyamide], the values for the IC50 against HDAC8 and against HDAC6 were 593 nM and 3.4 nM, respectively.
For `O=C(NO)c1ccc2cn(Cc3cc(F)cc(F)c3)nc2c1` [Compound 61, 2-(3,5-Difluorobenzyl)-2H-indazole-6-carboxylic acid hydroxyamide], the IC50 is 877 nM at HDAC8 and 3.9 nM at HDAC6.
In the case of `O=C(NO)c1ccc2cn(Cc3ccc(Cl)cc3)nc2c1` [Compound 54, 2-(4-Chlorobenzyl)-2H-indazole-6-carboxylic acid hydroxyamide], the IC50 at HDAC8 is 776 nM; against HDAC6, 2.7 nM. The “MS (in mouse)” value in “MS (in mouse)” was 40.8. In “MS (in human)”, the “MS (in human)” value is recorded as 49.3.
For the molecule `O=C(NO)c1ccc2cn(Cc3cccc(Oc4ccccc4)c3)nc2c1` [Compound 73, 2-(3-Phenoxybenzyl)-2H-indazole-6-carboxylic acid hydroxyamide], the IC50 stood at 2000 nM against HDAC8 and 22.8 nM on HDAC6.
On to `COc1ccc(CCn2cc3ccc(C(=O)NO)cc3n2)cc1` [Compound 60, 2-(2-4-Methoxyphenylethyl)-2H-indazole-6-carboxylic acid hydroxyamide], for which the IC50 against HDAC8 was found to be 1100 nM; on HDAC6 it was 4.7 nM.
As to `O=C(NO)c1ccc2cn(Cc3ccc(OC(F)F)cc3)nc2c1` [Compound 62, 2-(4-Difluoromethoxybenzyl)-2H-indazole-6-carboxylic acid hydroxyamide], the 50% inhibitory concentration (IC50) at HDAC8 worked out at 500 nM; at HDAC6, 4.1 nM.
With `O=C(NO)c1ccc2cn(CCc3ccc(F)cc3)nc2c1` [Compound 65, 2-(2-4-Fluorophenylethyl)-2H-indazole-6-carboxylic acid hydroxyamide], the IC50 against HDAC8 was 1520 nM; against HDAC6, 6.7 nM.
Taken in the same sequence, the figures for `O=C(NO)c1ccc2cn(Cc3ccc(OC(F)(F)F)cc3)nc2c1` [Compound 57, 2-(4-Trifluoromethoxybenzyl)-2H-indazole-6-carboxylic acid hydroxyamide] were 1070 nM and 5.5 nM.
Taken in the same sequence, the figures for `COc1cc(Cn2cc3ccc(C(=O)NO)cc3n2)cc(OC)c1` [Compound 72, 2-(3,5-Dimethoxybenzyl)-2H-indazole-6-carboxylic acid hydroxyamide] were 814 nM and 3.8 nM.
Take `O=C(NO)c1ccc2cn(Cc3ccc(-c4ccccc4)cc3)nc2c1` [Compound 63, 2-Biphenyl-4-ylmethyl-2H-indazole-6-carboxylic acid hydroxyamide]: the IC50 was 1290 nM against HDAC8 and 3.6 nM against HDAC6.
As for `COc1ccc(Cn2cc3ccc(C(=O)NO)cc3n2)cc1` [Compound 51, 2-(4-Methoxybenzyl)-2H-indazole-6-carboxylic acid hydroxyamide], the results for the IC50 at HDAC8 and at HDAC6 were 765 nM and 5.4 nM, respectively. Besides, in the data set “MS (in mouse)”, the “MS (in mouse)” value is listed as 98.6. For the same molecule, the “MS (in human)” value in “MS (in human)” is on record as 76.7.
Turning to `O=C(NO)c1cc2nn(Cc3cccc(Cl)c3)cc2cc1F` [Compound 89, 2-(3-chlorobenzyl)-5-fluoro-2H-indazole-6-carboxylic acid hydroxyamide], the IC50 against HDAC8 stood at 2370 nM; against HDAC6, 30.3 nM.
For the molecule `COc1cccc(Cn2cc3ccc(C(=O)NO)cc3n2)c1` [Compound 70, 2-(3-Methoxybenzyl)-2H-indazole-6-carboxylic acid hydroxyamide], the IC50 at HDAC8 is 967 nM; against HDAC6, 1.8 nM.
For `O=C(NO)c1ccc2cn(CCc3ccccc3)nc2c1` [Compound 59, 2-Phenethyl-2H-indazole-6-carboxylic acid hydroxyamide] the same measures were 1170 nM and 4 nM.
`CC(C)c1ccc(Cn2cc3ccc(C(=O)NO)cc3n2)cc1` [Compound 64, 2-(4-Isopropylbenzyl)-2H-indazole-6-carboxylic acid hydroxyamide]: the IC50 against HDAC8 was 2860 nM; against HDAC6, 29.3 nM.
For the molecule `O=C(NO)c1ccc2cn(Cc3cccc(F)c3)nc2c1` [Compound 66, 2-(3-Fluorobenzyl)-2H-indazole-6-carboxylic acid hydroxyamide], the IC50 on HDAC8 is 1130 nM; at HDAC6 it was 1.8 nM.
For `COc1cccc(Cn2cc3cc(F)c(C(=O)NO)cc3n2)c1` [Compound 90, 2-(3-Methoxybenzyl)-5-fluoro-2H-indazole-6-carboxylic acid hydroxyamide] the same measures were 2850 nM and 75.4 nM.
Taken in the same sequence, the figures for `O=C(NO)c1ccc2cn(Cc3cccc(C(F)(F)F)c3)nc2c1` [Compound 68, 2-(3-Trifluoromethylbenzyl)-2H-indazole-6-carboxylic acid hydroxyamide] were 738 nM and 3.3 nM.
Take `O=C(NO)c1ccc2cn(Cc3cccc(OCc4ccccc4)c3)nc2c1` [Compound 71, 2-(3-Benzyloxybenzyl)-2H-indazole-6-carboxylic acid hydroxyamide]: the IC50 at HDAC8 was 2120 nM; against HDAC6, 13.5 nM.
Consider `O=C(NO)c1ccc2cn(Cc3ccc(C(F)(F)F)cc3)nc2c1` [Compound 69, 2-(4-Trifluoromethylbenzyl)-2H-indazole-6-carboxylic acid hydroxyamide], for which the results for the IC50 on HDAC8 and on HDAC6 were 598 nM and 3 nM, respectively.
For the molecule `O=C(NO)c1ccc2cn(Cc3ccc(F)cc3)nc2c1` [Compound 53, 2-(4-Fluorobenzyl)-2H-indazole-6-carboxylic acid hydroxyamide], the IC50 at HDAC8 stood at 932 nM; on HDAC6, 5.9 nM. In “MS (in mouse)”, the “MS (in mouse)” value was 71.3. For the same molecule, the “MS (in human)” value in the data set “MS (in human)” came out at 85.9.
As for `O=C(NO)c1ccc2cn(Cc3ccc4ccccc4c3)nc2c1` [Compound 58, 2-Naphthalen-2-ylmethyl-2H-indazole-6-carboxylic acid hydroxyamide], the values for the IC50 at HDAC8 and at HDAC6 were 870 nM and 4.2 nM, respectively.
For `O=C(NO)c1ccc2cn(Cc3ccccc3)nc2c1` [Compound 50, 2-Benzyl-2H-indazole-6-carboxylic acid hydroxyamide], the IC50 at HDAC8 worked out at 1320 nM; against HDAC6, 2.6 nM. Moreover, the “MS (in mouse)” value in the data set “MS (in mouse)” came out at 79.3. Moreover, in “MS (in human)”, the “MS (in human)” value was 97.6.
With `O=C(NO)c1ccc2cn(Cc3cccc(OC(F)(F)F)c3)nc2c1` [Compound 56, 2-(3-Trifluoromethoxybenzyl)-2H-indazole-6-carboxylic acid hydroxyamide], the IC50 turned out to be 1020 nM at HDAC8 and 4.4 nM on HDAC6.
Take `O=C(NO)c1ccc2cn(Cc3cccc(Cl)c3)nc2c1` [Compound 67, 2-(3-Chlorobenzyl)-2H-indazole-6-carboxylic acid hydroxyamide]: the 50% inhibitory concentration (IC50) against HDAC8 amounted to 8390 nM; on HDAC6 it was 1.3 nM.
In the case of `O=C(NO)c1cc2nn(Cc3ccccc3)cc2cc1F` [Compound 88, 2-Benzyl-5-fluoro-2H-indazole-6-carboxylic acid hydroxyamide], the half-inhibitory concentration (IC50) against HDAC8 came out at 3840 nM; against HDAC6 it was 74.3 nM.
